Measured values taken from paper PMC10250618, “Synthesis, structure-activity relationships and biological evaluation of benzimidazole derived sulfonylurea analogues as a new class of antagonists of P2Y1 receptor” (Frontiers in Pharmacology, 2023).

Key:
[1] = target: T1, r-P2Y6 (Rattus norvegicus, UniProt Q63371); experiment: Calcium mobilization assay, r-P2Y6 transfected 1321N1 astrocytoma cells; format: cell-based
T1 construct: host or cells: human 1321N1 astrocytoma cells, stably transfected
Description: (§1) Dr. Gary A. Weisman provided human-1321N1 astrocytoma cells that had been transfected by the tP2Y1R, hP2Y2R, hP2Y4R, and rP2Y6R and untransfected 1321N1 astrocytoma cells (University of Missouri Mo., Bond Life Science Center). The DMEM Dulbecco’s Modified Eagle -Medium (Gibco) was added in flasks to cultivate the cell line. 10% of the Fetal bovine serum was also added to the media together with 500 μg/mL of Geneticin (G418) and 1% of the Pen/Strep. The cells in T-75 flask were then cultured and incubated in a CO2 incubator which was maintained at (5%) and 37°C temperature until 90% of the cells were confluent. Throughout the experiment, cells were periodically checked for the confluency and strictly watched for the microbial contamination.
(§2) The FLUOstar Galaxy (BMG LABTECH GmbH, Ortenberg, Germany) microplate reader with two injectors was used to measure the Ca^2+ fluorescence of synthetic compounds. For this assay, 1321N1 transfected cells (t-P2Y1, h-P2Y2, h-P2Y4, and r-P2Y6) were cultured in T-75 flask. When cells reached the confluency of 80%–90%, they were washed with PBS and then Trypsin was added. After trypsinization for 3 min, 20,000 cells/well were allowed to seed in a black wall and 96 well clear bottom plate which was coated with Poly-D-Lysine and allowed to incubate for 24 h in 37°C, 5% CO2 incubator. After incubation, 200 μL culture media was changed with 100 μL HBSS containing Fura-2 AM which is calcium chelating dye and allowed the plate to incubate for 45 min in dark at temp of 37°C in incubator which is maintained with carbon dioxide (5% CO2). After incubation for 45 min, synthesized molecules were added to HBSS washed cells in each well of 96 well plate and re-incubated for 30 min at 37°C. In next step, injection of the endogenous ligand such as ADP through the injector was followed by excitation and emission measurements of Fura-2 AM at 380/520 nm and 340/520. Final volume of the assay per well 200 μL. IC50 values were computed for the compounds displaying more than 50% of activity using Prism 5.0 software (Graph Pad., Inc., San Diego. California, United States) by using analysis i.e., nonlinear regression ([Kassack et al., 2002]; [Ullmann et al., 2005]).

[2] = target: T2, h-P2Y4 (Homo sapiens, UniProt P51582); experiment: Calcium mobilization assay, h-P2Y4 transfected 1321N1 astrocytoma cells; format: cell-based; settings: final conc of 100 μM; 500 μM UTP
T2 construct: host or cells: human 1321N1 astrocytoma cells, stably transfected
T2 sequence (P51582 whole entry): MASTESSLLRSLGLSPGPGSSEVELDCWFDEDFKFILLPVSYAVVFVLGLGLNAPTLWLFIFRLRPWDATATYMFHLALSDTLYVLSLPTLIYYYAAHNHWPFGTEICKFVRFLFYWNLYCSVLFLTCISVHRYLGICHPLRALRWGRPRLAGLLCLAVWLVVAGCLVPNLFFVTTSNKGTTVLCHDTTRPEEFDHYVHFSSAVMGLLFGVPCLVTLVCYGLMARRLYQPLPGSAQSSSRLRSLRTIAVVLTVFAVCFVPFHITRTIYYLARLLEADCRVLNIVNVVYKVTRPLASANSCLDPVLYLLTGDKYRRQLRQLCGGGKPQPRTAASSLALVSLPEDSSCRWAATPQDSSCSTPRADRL
Description: as §1, §2

[3] = target: T3, h-P2Y2 (Homo sapiens, UniProt P41231); experiment: Calcium mobilization assay, h-P2Y2 transfected 1321N1 astrocytoma cells; format: cell-based; settings: 500 μM ATP
T3 construct: host or cells: human 1321N1 astrocytoma cells, stably transfected
T3 sequence (P41231 whole entry): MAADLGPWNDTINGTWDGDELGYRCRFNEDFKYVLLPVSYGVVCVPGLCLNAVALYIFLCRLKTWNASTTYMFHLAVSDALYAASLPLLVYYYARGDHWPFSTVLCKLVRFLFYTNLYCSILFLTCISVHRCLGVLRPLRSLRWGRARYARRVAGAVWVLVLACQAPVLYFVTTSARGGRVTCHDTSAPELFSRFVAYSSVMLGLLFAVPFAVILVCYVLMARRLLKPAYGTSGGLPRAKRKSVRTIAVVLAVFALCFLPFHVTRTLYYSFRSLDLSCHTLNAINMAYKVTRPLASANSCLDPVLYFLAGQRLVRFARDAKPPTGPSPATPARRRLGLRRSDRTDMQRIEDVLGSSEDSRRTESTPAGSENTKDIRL
Description: as §1, §2

[4] = test system: HeLa Cell Line; experiment: MTT assay, HeLa; format: cell-based; settings: at 50 µM; triplicate
[5] = test system: H-1321N1 Cell Line; experiment: MTT assay, non-transfected 1321N1 astrocytoma cells; format: cell-based, human; settings: at 50 µM; non-transfected astrocytoma 1321N1 cells; triplicate
Description: (§3) A 96-well plate was used to plate 20,000 human 1321N1 astrocytoma cells and allowed for incubation for 24 h at temp of 37°C in CO2 (5%) incubator. Next to this, the prepared culture media was changed to media which was free from FBS, the test compounds were added and the incubation process was repeated. After incubation of 24 h, the serum free media from the wells was discarded, and 100 μL of the reagent i.e., MTT reagent was pipetted. Plate was then additionally incubated at 37°C for 4 h. Utilizing a microplate reader, absorbance was determined at 570 nm and 630 nm for calculation of cell viability (FLUOstarOmega Microplate Reader-BMG LABTECH GmbH, Ortenberg, Germany) ([Sauer et al., 2009]).

[6] = target: T4, t-P2Y1 (Meleagris gallopavo, UniProt P49652); experiment: Calcium mobilization assay, t-P2Y1 transfected 1321N1 astrocytoma cells; format: cell-based; settings: 100 μM ADP
T4 construct: host or cells: human 1321N1 astrocytoma cells, stably transfected
T4 sequence (P49652 whole entry): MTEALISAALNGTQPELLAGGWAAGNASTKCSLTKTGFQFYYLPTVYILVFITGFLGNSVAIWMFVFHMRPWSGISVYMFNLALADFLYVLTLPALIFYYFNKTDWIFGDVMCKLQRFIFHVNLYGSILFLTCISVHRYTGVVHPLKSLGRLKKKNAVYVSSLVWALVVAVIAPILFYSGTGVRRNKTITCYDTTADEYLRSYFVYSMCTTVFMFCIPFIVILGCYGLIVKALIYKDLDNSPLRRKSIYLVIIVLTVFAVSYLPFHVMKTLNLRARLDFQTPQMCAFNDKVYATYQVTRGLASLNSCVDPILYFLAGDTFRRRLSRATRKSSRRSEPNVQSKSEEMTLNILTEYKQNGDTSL
Description: as §1, §2

[7] = test system: HEK-293 Cell Line; experiment: MTT assay, HEK-293; format: cell-based; settings: at 50 µM; triplicate
[8] = target: P2Y1; settings: Figure 1, reported antagonist; cited from earlier work
[9] = MTT assay, HeLa; format: cell-based; settings: human, HeLa cells; at 50 µM; triplicate; read-out: HeLa Cell Line (%cytotoxicity ±SEM)
[10] = test system: hP2Y2; set-up: method as in Bano et al., 2021; settings: Figure 1, reported antagonist; ref Bano et al., 2021; cited from earlier work
[11] = MTT assay, non-transfected 1321N1 astrocytoma cells; format: cell-based, human; settings: human, non-transfected 1321N1 astrocytoma cells; at 50 µM; non-transfected astrocytoma 1321N1 cells; triplicate; read-out: H-1321N1 Cell Line (%cytotoxicity ±SEM)
Description: as §3

[12] = MTT assay, HEK-293; format: cell-based; settings: human, HEK-293 cells; at 50 µM; triplicate; read-out: HEK-293 Cell Line (%cytotoxicity ±SEM)

T1 sequence (Q63371 whole entry): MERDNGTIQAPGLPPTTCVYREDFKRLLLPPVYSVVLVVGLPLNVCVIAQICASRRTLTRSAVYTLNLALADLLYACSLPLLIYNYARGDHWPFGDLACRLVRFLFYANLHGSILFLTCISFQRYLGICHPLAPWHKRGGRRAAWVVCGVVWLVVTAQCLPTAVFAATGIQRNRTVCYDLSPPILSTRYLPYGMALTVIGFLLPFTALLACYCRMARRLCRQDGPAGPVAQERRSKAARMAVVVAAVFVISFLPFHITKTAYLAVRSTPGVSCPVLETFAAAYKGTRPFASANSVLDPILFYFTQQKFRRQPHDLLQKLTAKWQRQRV

2-Amino-5-nitro-N-((4-nitrophenyl)sulfonyl)-1H-benzo [d]imidazole-1-carbox amide [1d]
r-P2Y6 % Inhibition ([1]; Supplementary Table 2): 39% | % Inhibition r-P2Y6 ([1]; final conc of 100 μM, 100 μM of UDP): 39% | % Inhibition h-P2Y4 [2]: 48% | % Inhibition h-P2Y2 ([3]; final conc of 100 μM): 41% | HeLa Cell Line (%cytotoxicity ±SEM) [4]: 28.3 ± 0.4% | H-1321N1 Cell Line (%cytotoxicity ±SEM) [5]: 15.9 ± 0.3% | % Inhibition t-P2Y1 ([6]; final conc of 100 μM): 43% | HEK-293 Cell Line (%cytotoxicity ±SEM) [7]: 20.3 ± 0.6%

CNc1nc(I)nc2c1ncn2C1CC(OP(=O)(O)O)C2(COP(=O)(O)O)CC12 (stereo not drawn) [MRS2500]
Ki [8]: 0.00078 µM

Cc1ccc(C(=O)Nc2ccc(S(=O)(=O)O)c3cc(S(=O)(=O)O)cc(S(=O)(=O)O)c23)cc1NC(=O)c1cccc(NC(=O)Nc2cccc(C(=O)Nc3cc(C(=O)Nc4ccc(S(=O)(=O)O)c5cc(S(=O)(=O)O)cc(S(=O)(=O)O)c45)ccc3C)c2)c1 [Suramin, reference compound]
IC50 ([3]; Ca2+ mobilization inhibition, transfected 1321N1 cells, read-out: IC50 ± SEM h-P2Y2): 3.31 ± 0.08 µM | cytotoxicity at 24 h, 50 µM [9]: 37.5 ± 0.2% | IC50 [10]: 48 µM | cytotoxicity at 24 h, 50 µM [11]: 12.3 ± 0.2% | IC50 ([6]; Ca2+ mobilization inhibition, transfected 1321N1 cells, read-out: IC50 ± SEM t-P2Y1): 0.15 ± 0.01 µM | cytotoxicity at 24 h, 50 µM [12]: 11.1 ± 0.2%
